Laboratory results as given in US7749985B2, “Acyloxyalkyl carbamate prodrugs, methods of synthesis and use” (XenoPort, Inc., priority 2006, dated 2010).

Legend:
[1] = Enzymatic cleavage of prodrugs in vitro (tissue preparations of Table 1); type: in vitro ADME; conditions: in the presence of the tissue preparations, 37° C.
Protocol: (§1) The stabilities of prodrugs were evaluated in one or more in vitro systems using a variety of tissue preparations following methods known in the art. The chemical stability of prodrugs in aqueous buffers at a pH of 2.0, 7.4, and 8.0 were also measured. Tissues were obtained from commercial sources (e.g., Pel-Freez Biologicals, Rogers, Ark., or GenTest Corporation, Woburn, Mass.). Experimental conditions used for the in vitro studies are described in Table 1. Each preparation was incubated with test compound at 37° C. for one hour. Aliquots (50 μL) were removed at 0, 30, and 60 min and quenched with 0.1% trifluoroacetic acid in acetonitrile. Samples were then centrifuged and analyzed by LC/MS/MS. Stability of prodrugs towards specific enzymes (e.g., peptidases, etc.) was also assessed in vitro by incubation with the purified enzyme.
Pancreatin Stability: Stability studies were conducted by incubating prodrug (5 μM) with 1% (w/v) pancreatin (Sigma, P-1625, from porcine pancreas) in 0.025 M Tris buffer containing 0.5 M NaCl (pH 7.5) at 37° C. for 60 min. The reaction was stopped by addition of 2 volumes of methanol. After centrifugation at 14,000 rpm for 10 min, the supernatant was removed and analyzed by LC/MS/MS.
Caco-2 Homogenate S9 Stability: Caco-2 cells were grown for 21 days prior to harvesting. Culture medium was removed and cell monolayers were rinsed and scraped off into ice-cold 10 mM sodium phosphate/0.15 M potassium chloride, pH 7.4. Cells were lysed by sonication at 4° C. using a probe sonicator. Lysed cells were then transferred into 1.5 mL centrifuge vials and centrifuged at 9,000 g for 20 min at 4° C. The resulting supernatant (Caco-2 cell homogenate S9 fraction) was aliquoted into 0.5 mL vials and stored at −80° C. until used.
For stability studies, prodrug (5 μM) was incubated in Caco-2 homogenate S9 fraction (0.5 mg protein per mL) for 60 min at 37° C. Concentrations of intact prodrug and released tranexamic acid were determined at zero time and 60 min using LC/MS/MS.

[2] = pH-Dependent Stability of prodrugs in aqueous buffers; type: physicochemical; conditions: pH 2 to pH 8, 37° C.
Protocol: as §1
pH-Dependent Stability: The long-term pH-dependent stability of tranexamic acid prodrug at 37° C. was measured by LC/MS/MS at five different representative pH values from pH 2.0 to pH 8.0 was determined. The test concentration was 5 μM. The amount of remaining prodrug and the amount of tranexamic acid released from the prodrug was determined at 0 hour and after 24 hours.

[3] = animal models (Merino et al., Biopharm. Drug. Disp. 1989); cited from earlier work

SMILES	hydrolysis to release the corresponding 3-aminopropylphosphinic acid analog [1]	stability from pH 2 to pH 8 [2]	absorption following administration into the colon [3]
CCCCP(=O)(O)CCCNC(=O)OC(OC(=O)C(C)C)C(C)C (centres unmarked) [39/40, 3-{[1-isobutanoyloxyisobutoxy]carbonylamino}propyl(n-butyl)phosphinic acid]	hydrolyzed to release the corresponding 3-aminopropylphosphinic acid analogs	good stability	–
CCCCP(=O)(O)CCCNC(=O)OCOC(=O)c1ccccc1 [Compound 212, 3-{[1-Benzoyloxymethoxy]carbonylamino}propyl(n-butyl)phosphinic Acid]	hydrolyzed to release the corresponding 3-aminopropylphosphinic acid analogs	good stability	–
CCCCP(=O)(O)CCCNC(=O)OC(C)OC(=O)C(C)C (centres unmarked) [Compound 31, 3-{[1-Isobutanoyloxyethoxy]carbonylamino}propyl(n-butyl)phosphinic Acid]	hydrolyzed to release the corresponding 3-aminopropylphosphinic acid analogs	good stability	–
CCCCP(=O)(O)CCCNC(=O)OCOC(=O)C(C)C [Compound 35, 3-{[Isobutanoyloxymethoxy]carbonylamino}propyl(n-butyl)phosphinic Acid]	hydrolyzed to release the corresponding 3-aminopropylphosphinic acid analogs	good stability	–
CCCCP(=O)(O)CCCNC(=O)OC(C)OC(=O)c1ccccc1 (centres unmarked) [Compound 211, 3-{[1-Benzoyloxyethoxy]carbonylamino}propyl(n-butyl)phosphinic Acid]	hydrolyzed to release the corresponding 3-aminopropylphosphinic acid analogs	good stability	–
NCC(CC(=O)O)c1ccc(Cl)cc1 (racemic) [Baclofen, (±)-4-Amino-3-(4-chlorophenyl)butanoic acid]	–	–	poorly absorbed
